The target of this test is Heat shock 70 kDa protein 1A (Homo sapiens, UniProt V9GZ37). The test is described as follows: inhibition of Hsp70 binding activity – biochemical, fluorescence polarization, SAR follow-up (AID 1072). For orientation: Fluorescence polarisation rises when a labelled molecule tumbles more slowly, as on binding a larger partner.

This passage reports IC50 results from BindingDB's records for doi:10.7270/Q2S75DRW (Burnham Center For Chemical Genomics, 2008).

Heat shock 70 kDa protein 1A, sequence (V9GZ37 whole entry): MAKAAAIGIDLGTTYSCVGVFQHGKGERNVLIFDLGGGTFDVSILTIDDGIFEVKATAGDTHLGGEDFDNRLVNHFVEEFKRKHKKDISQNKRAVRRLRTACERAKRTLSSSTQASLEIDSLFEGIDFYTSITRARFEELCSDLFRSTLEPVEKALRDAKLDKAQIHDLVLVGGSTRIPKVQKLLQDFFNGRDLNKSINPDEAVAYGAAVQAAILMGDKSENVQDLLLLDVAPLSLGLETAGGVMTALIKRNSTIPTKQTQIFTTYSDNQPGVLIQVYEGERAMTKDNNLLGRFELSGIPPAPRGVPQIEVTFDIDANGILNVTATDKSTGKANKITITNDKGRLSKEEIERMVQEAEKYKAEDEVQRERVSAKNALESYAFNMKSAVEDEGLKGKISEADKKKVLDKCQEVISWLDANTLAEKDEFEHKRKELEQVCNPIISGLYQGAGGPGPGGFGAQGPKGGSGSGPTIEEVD

The IC50 is the concentration that gives 50% inhibition. Lower therefore signals higher potency. Turning to `O=C1C=C2CC3(O)CCc4c(ccc(O)c4O)C3=C2CC1=O` (stereo unspecified) [3,4,6a,10-tetrakis(oxidanyl)-6,7-dihydro-5H-benzo[g]fluoren-9-one], the half-inhibitory concentration (IC50) was determined as 34.2 µM. This counts as double-digit micromolar.
